According to patent US10124012B2, “Method for treatment of hyperglycemia and hyperlipidemia” (priority 2016, dated 2018):

Legend:
membrane GLUT4 = assay: Membrane GLUT4 expression in C2C12 cells (Western blotting); type: cell-based; details: AnK 1, 5, 10 and 25 μg/mL 30 min, insulin 100 nM 25 min, vs CON group
Protocol: (§1) For the in vitro assay, C2C12 skeletal myoblasts (ATCC CRL-1772) were cultured at 37° C. in Dulbecco's modified Eagle's medium (DMEM; Gibco BRL) supplemented with 10% fetal bovine serum (FBS; Hyclone) and 100 U/ml penicillin and 100 μg/ml streptomycin (Gibco BRL), and split 1:4 using 0.05% trypsin at 80% confluency. Myoblasts were diluted and placed in a 9 cm dish. Cells were cultured to achieve 80-90% confluency and refreshed with […] (2% FBS/DMEM) every 24 hours for 5-7 days. The term “confluency” refers to the proportion of the surface of a culture dish that is covered by adherent cells growing in the dish. 100% confluency refers to complete coverage of the surface by the cells.
(§2) Differentiated C2C12 cells were serum-starved in DMEM/BSA at 37° C. for 2 hours prior to incubation with AnK (at 1, 5, 10, and 25 μg/mL) or vehicle (0.2% dimethyl sulfoxide (DMSO) in saline) for 30 min or with 100 nM insulin for 25 min.
The C2C12 cells of the other group were homogenized in a homogenization buffer having a pH value of about 7.4 and containing 250 mM sucrose, 50 mM Tris, and 0.2 mM edetic acid (EDTA). […]
(§3) Protein concentrations were determined via BCA assay (Pierce). […]
(§4) SDS polyacrylamide gel electrophoresis (SDS-PAGE) and Western blotting. Proteins were detected with antibodies specific for GLUT4, Akt, phospho-Akt (Ser^473), AMPK, and phospho-AMPK (Thr^172).

PPARγ = assay: Western blotting of PPARγ in adipose tissue; type: in vivo, C57BL/6J mice; details: HFD-fed mice, AnK 10, 20, 40, Feno 250, Metf 300 mg/kg/day, vs HF group
Text: The 4-week old male C57BL/6J mice (total amount n=63) were obtained from the National Laboratory Animal Center (Taipei, Taiwan). After acclimatization for one week, all of the mice were randomly assigned into a control (CON) group and a high-fat diet (HFD) group. […] After HFD feeding for 8 weeks, the HFD group was randomly subdivided into six groups (n=9 per group) receiving different treatments and fed on HFD. […] The HF+AnK1, HF+AnK2, and HF+AnK3 groups are collectively termed AnK-treated HFD groups in the following examples. The CON mice were administered vehicle. All treatments were administered via oral gavage once daily. After administration for 4 weeks, all mice were fasted 12 hours, and blood was collected from the retro-orbital sinus under ether anesthesia. At the end of the experiment, the mice were sacrificed via carbon dioxide inhalation. […]
About 0.1 g of liver tissue, skeletal muscle, or adipose tissue was used for the homogenate samples. […] The protein concentration in supernatant was determined with a BCA protein assay kit (Thermo Scientific, Rockford, Ill., USA). […] Immunoreactive bands were detected with ECL reagent kit (GE Healthcare BioSciences, Buckinghamshire, UK). The intensity of Western blot signals was analyzed using AlphaEase FC software (Alpha Innotech Corporation, Randburg, South Africa). […]

[1] = test system: phospho-AMPK (Thr^172)/total-AMPK; assay: AMPK phosphorylation in C2C12 cells (Western blotting); type: cell-based; details: AnK 1, 5, 10 and 25 μg/mL 30 min, insulin 100 nM 25 min, vs CON group
Protocol: as §1, §2
(§5) The abovementioned C2C12 cells were then washed three times with phosphate buffered saline (PBS) and divided into two groups. […]
as §3, §4

[2] = test system: human liver cancer Hep3B cells; details: cited from earlier work
[3] = test system: phospho-Akt (Ser^473)/total-Akt; assay: Akt phosphorylation in C2C12 cells (Western blotting); type: cell-based; details: AnK 1, 5, 10 and 25 μg/mL 30 min, insulin 100 nM 25 min, vs CON group
Protocol: as §1, §2, §5, §3, §4

SMILES: C=C(CC[C@@H](C)[C@H]1CC[C@H]2C3=C(C(=O)C[C@]12C)[C@@]1(C)CC[C@@H](O)[C@](C)(O)[C@@H]1C[C@@H]3O)C(C)C(=O)O (stereo partly drawn) [AnK, 3α,4β,7β-trihydroxy-4α-methylergosta-8,24(28)-dien-11-on-25S-26-oic acid]
- protein expression of membrane GLUT4 (membrane GLUT4): enhanced
- expression levels of PPARγ (protein) (PPARγ): significantly reduced
- expression ratio of phospho-AMPK (p-AMPK) to total-AMPK (t-AMPK) [1]: higher
- apoptotic cell death [2]: inducing apoptotic cell death
- expression ratio of phospho-Akt (p-Akt) to total-Akt (t-Akt) [3]: higher
